Assay results reported in patent US8993606B2, “Oral formulations for treating metal overload” (FerroKin BioSciences, Inc., priority 2011, dated 2015).
Where two headings read alike, the source gives them in different places.

Experiment: Example 7: high single doses in healthy human subjects (PK)
Format: in vivo
Conditions: fasted; for CL renal / AUC(0-inf) / Cmax / Tmax / Vd/F / half-life: both sexes, human; for CL renal: plasma and urine; for AUC(0-inf) / Cmax / Tmax / Vd/F / half-life: plasma; for Vd/F: read-out: Vz/F; for half-life: read-out: t½ (converted)
Description: Subjects were male and female healthy human volunteers aged between 18 and 50 years, free from clinically significant illness or disease as determined by their medical/surgical history, physical examination etc., and having a serum ferritin>20 ng/mL. Subjects were given, in the fasted state, either 30, 40, 50, or 60 mg/kg Compound 1 as a blended formulation of 96% (wt/wt) drug substance (powder) with 3% (wt/wt) croscarmellose sodium and 1% (wt/wt) magnesium stearate dispensed in hard gelatin capsules in strengths of 50 mg, 100 mg, 250 mg, and 375 mg.
The 30 and 50 mg/kg dose groups each contained seven subjects; data from only four of these subjects was used to calculate AUCinf, t½, CL/F, and VZ/F. The 40 and 60 mg/kg dose groups each contained three subjects; data from only three of these subjects was used to calculate AUCinf, t½, CL/F, and VZ/F.
Blood samples of approximately 7 mL were drawn via cannula at 0.25, 0.5, 0.75, 1, 1.25, 1.5, 2, 2.5, 4, 8, 12 and 24 hours post-dose, for pharmacokinetic analysis. (See FIG. 2.) Urine was collected over the time periods 0-4, 4-8, 8-12 and 12-24 hours post-dose for pharmacokinetic and pharmacodynamic assessment.
PK plasma and PK urine samples were assayed by a validated LC/MS/MS method, specific for the determination of Compound 1. Pharmacokinetic parameters for Compound 1 will be calculated using non-compartmental analysis. Only plasma and urine concentrations greater than the lower limits of quantitation (LOQ, 5 ng/mL in plasma and urine) for the assays will be used in the pharmacokinetic analysis.

Q: Which CL renal (single oral dose 30 mg/kg) does the source give for `COCCOCCOCCOc1cccc(C2=N[C@@](C)(C(=O)O)CS2)c1O` [Compound 1, (S)-4,5-Dihydro-2-[2-hydroxy-3-(3,6,9-trioxadecyloxy)phenyl]-4-methyl-4-thiazolecarboxylate magnesium hydroxide] here?
A: 139 ± 13.2 mL/min

Q: What about the CL renal (single oral dose 40 mg/kg) of the same molecule?
A: 152 ± 18 mL/min

Q: And the CL renal (single oral dose 50 mg/kg)?
A: 103 ± 16.2 mL/min

Q: What about the CL renal (single oral dose 60 mg/kg) of the same molecule?
A: 146 ± 34.4 mL/min

Q: What about the AUC(0-inf) (single oral dose 30 mg/kg) of the same molecule?
A: 161 ± 24.1 µg·h/mL

Q: What about the Cmax (single oral dose 30 mg/kg) of the same molecule?
A: 68.2 ± 17.5 µg/mL

Q: What about the Tmax (single oral dose 30 mg/kg) of the same molecule?
A: 1 h

Q: And the Vd/F (single oral dose 30 mg/kg)?
A: 248 ± 58.8 L

Q: What about the half-life (single oral dose 30 mg/kg) of the same molecule?
A: 12.1 ± 3.05 h

Q: What about the AUC(0-inf) (single oral dose 40 mg/kg) of the same molecule?
A: 195 ± 67.3 µg·h/mL

Q: And the Cmax (single oral dose 40 mg/kg)?
A: 87.9 ± 15 µg/mL

Q: And the Tmax (single oral dose 40 mg/kg)?
A: 1.38 h

Q: And the Vd/F (single oral dose 40 mg/kg)?
A: 542 ± 657 L

Q: What about the half-life (single oral dose 40 mg/kg) of the same molecule?
A: 18.6 ± 19.2 h

Q: And the AUC(0-inf) (single oral dose 50 mg/kg)?
A: 236 ± 58.3 µg·h/mL

Q: What about the Cmax (single oral dose 50 mg/kg) of the same molecule?
A: 91.7 ± 18.8 µg/mL

Q: What about the Tmax (single oral dose 50 mg/kg) of the same molecule?
A: 1.5 h

Q: And the Vd/F (single oral dose 50 mg/kg)?
A: 338 ± 272 L

Q: And the half-life (single oral dose 50 mg/kg)?
A: 12.8 ± 7.66 h

Q: And the AUC(0-inf) (single oral dose 60 mg/kg)?
A: 227 ± 44.7 µg·h/mL

Q: What about the Cmax (single oral dose 60 mg/kg) of the same molecule?
A: 104 ± 36.7 µg/mL

Q: What about the Tmax (single oral dose 60 mg/kg) of the same molecule?
A: 1.25 h

Q: And the Vd/F (single oral dose 60 mg/kg)?
A: 285 ± 159 L

Q: What about the half-life (single oral dose 60 mg/kg) of the same molecule?
A: 8.44 ± 3.83 h

Q: What about the CL/F (single oral dose 30 mg/kg) of the same molecule?
A: 239 ± 17.2 mL/min

Q: And the CL/F (single oral dose 40 mg/kg)?
A: 290 ± 73.8 mL/min

Q: What about the CL/F (single oral dose 50 mg/kg) of the same molecule?
A: 286 ± 56.1 mL/min

Q: And the CL/F (single oral dose 60 mg/kg)?
A: 381 ± 55.8 mL/min
